Assay [1] concerns ISAV virus (Infectious salmon anemia virus). Description: Capture of ISAV virus on magnetic microbeads coated with pepβ2GPI, RT-PCR quantification. In kind it is binding. The settings on record: for ISAV copies: virus captured on coated beads from culture supernatant. An excerpt:
The virus used is the ISAV virus (Infectious salmon anemia virus), responsible for anemia in salmon, originating from a culture supernatant.
The microbeads, intended to fix the virus, which are used are magnetic microbeads sold by the company MERCK under the name “Estapor® super-paramagnetic microspheres” which have a diameter between […].
(§1) The pepβ2GPI were grafted onto the microbeads according to the supplier's recommendations. In summary, the microbeads are suspended in phosphate buffer at a pH of 6.0. The beads are then activated, for 15 minutes, in the presence of 1-ethyl-3-(3-Dimethylaminopropyl) carbodiimide and N-hydroxysuccinimide. After washing with HCl, 2 mM, the beads are suspended in a phosphate buffer at a pH of 7.5, containing the pepβ2GPI. The concentration of pepβ2GPI in this coupling buffer is 20 mg/L; the microbeads are incubated in the buffer with gentle and constant shaking at a temperature of 25° C. for 3 hours. The microbeads are then centrifuged at 1,500 rpm and the supernatant is removed; the centrifugation pellet is suspended in the same buffer as that used for the coupling of pepβ2GPI, which forms the suspension of microbeads coated with pepβ2GPI which we want to test.
(§2) One hundred microliters of viral culture supernatant to be studied are placed in an Eppendorf tube with 900 microliters of Tris buffer at a pH of 7.5 and 10 microliters of microbeads. The tubes are shaken horizontally to mix the microbeads well, and each tube is incubated at 37° C. or at room temperature (RT=22° C.) for 30 minutes. In each tube, the microbeads are then separated from the liquid phase by means of a magnet, placed externally against the wall of the tube, and the viral RNA is extracted. The beads are brought into contact with a viral lysis buffer, included in an RNA extraction kit: QIAamp RNA viral kit, sold by QIAGEN and the viral RNA is isolated according to the seller's recommendations.
The RNA is then transcribed into complementary DNA, in the presence of reverse transcriptase, according to the following protocol:
Finally, the complementary DNA (cDNA) is amplified by chain reaction using a polymerase and quantified according to the following protocol: […]

Assay [2] relates to IPN virus (Infectious pancreatic necrosis virus). Description: Capture of IPN virus on magnetic microbeads coated with pepβ2GPI, RT-PCR quantification. In kind it is binding. Conditions: for IPN Copies: virus captured on coated beads from culture supernatant. Here is the method:
as §1, §2
The virus used is the IPN virus (Infectious pancreatic necrosis virus), responsible for necrosis of the pancreas in salmon, originating from a culture supernatant. The same protocol as described in example 1 was carried out.

Assay [3] relates to HCV virus (hepatitis C virus). Description: Capture of HCV virus from patient plasma on magnetic microbeads coated with pepβ2GPI, RT-PCR quantification. The assay is classed as binding. Conditions: for HCV/run copies: per run, virus captured on coated beads from plasma of patients. Here is the method:
as §1, §2
The virus used is the HCV virus (hepatitis C virus), present in the plasma of patients. The same protocol as described in example 1 was carried out.

Another assay deals with E. coli B6054. The assay is described as follows: Capture of E. coli B6054 on magnetic microbeads, culture on TS agar and counting. In kind it is binding, Escherichia coli. Conditions: E. coli B6054 colonies from captured beads.
The test system of the next assay is E. coli ATCC 8739. Description: Capture of E. coli ATCC 8739 on magnetic microbeads, culture and counting. In kind it is binding, Escherichia coli. Conditions: E. coli ATCC 8739 colonies from captured beads. Here is the method:
(§3) One ml of the culture of bacteria to be studied is placed in a hemolysis tube. 100 μl of buffer are added, the trade name of which is TTGB, then 20 μl of microbeads. The tube is stirred horizontally, to mix the microbeads well, and incubated at 37° C. or at room temperature (TA=22° C.) for half an hour. At the end of the incubation, the microbeads are separated from the liquid phase by means of a magnet, placed externally against the wall of the tube. The microbeads are then washed twice with LB medium and then resuspended in 1 ml of BTS culture medium (Tripticase-Soy broth) having the following formulation: […]
(§4) This culture medium is brought to a boil and then autoclaved, to make it sterile, before use. 20 μl of the microbead suspension are taken and spread in a Petri dish containing TS agar (Trypticase-Soya agar) having the following formulation: […]
(§5) The Petri dishes are incubated at +37° C. for 24 hours. The bacteria that have grown on the agar are then counted.
The used bacteria were obtained from a collection strain of Escherichia coli (E. coli), ATCC 8739. The same experiment as that described in the previous example was carried out.

Assay [4] relates to bacteria present in treated wastewater. The assay is described as follows: Capture of bacteria present in treated wastewater on magnetic microbeads, culture and counting. In kind it is binding. Here is the method:
as §3, §4, §5
The beads, on which β2GPI and peptides derived therefrom were grafted, were used to capture the bacteria present in treated wastewater. This water was recovered at the outlet of the purifier from the Grau-du-Roi treatment plant. The same experiment as that described in the previous example was carried out.

In another assay the test system is SCN. Description: Capture from blood culture on magnetic microbeads, culture on TS agar: SCN. In kind it is binding. Here is the method: (§6) The beads, on which β2GPI and peptides derived therefrom were grafted, were used for the capture of bacteria present in human blood and highlighted by blood culture.
(§7) These blood cultures are carried out by placing a venous blood sample […] in aerobic vials of BacT/ALERT®3D type. These flasks are then incubated in an automated system at 35° C. for at least 5 days. The bottles are equipped with a colorimetric detection system with a sensor located at the base of each bottle. Carbon dioxide produced by growing bacteria changes the color of the sensor; this change in color is detected by an automated system and indicates the presence of bacterial growth: these blood cultures are said to be positive. In the BacT/ALERT®3D vials there are particles of activated carbon, which inhibit antibiotics potentially present in the blood of patients, thereby improving the detection of microorganisms. To confirm the presence of bacteria in blood cultures which have been found positive, the hospital performs a culture on blood agar. […]
(§8) To test the interaction of microbeads coated with β2GPI and the peptides derived from them, with bacteria present in the blood, 1 ml of blood culture is taken from each sample and placed in a 15 ml tube. […] The bacteria that have grown on the agar were then counted.

Another assay has as its system E. faecium. The assay is described as follows: Capture from blood culture on magnetic microbeads, culture on TS agar: E. faecium. In kind it is binding. Here is the method: as §6, §7, §8
The next assay concerns S. maltophilia. The assay is described as follows: Capture from blood culture on magnetic microbeads, culture on TS agar: S. maltophilia. In kind it is binding. Here is the method: as §6, §7, §8

The record followed here is US20240002470A1, “Method for separation and/or detection and/or in vitro quantification of infectious compounds in biological material” (priority 2020, published 2024).

Regarding H-((SSLAFWK)2-K)2-K—NH2 [Peptide P11], the “% compared to β2GPI” value in assay [1] (ISAV copies captured relative to β2GPI beads) was “(140%)”; in assay [2] (IPN copies captured relative to β2GPI beads) it was “(175%)”; in assay [3] (HCV copies captured relative to β2GPI beads), “(86%)”; in the assay on E. coli B6054 it was 91%; in the assay on E. coli ATCC 8739, 99%; in [4], 105%. Besides, the “% compared to β2GPI” value in the assay with SCN stood at 101%; in the assay with E. faecium it was 88%; in the assay on S. maltophilia it was 29%. Further, the ISAV copies in assay [1] is on record as 78 350 copies. The “IPN Copies” value in assay [2] is listed as 21 copies. Besides, in assay [3], the HCV/run copies is 97 copies.

B1: β2GPI: plasma glycoprotein called β2-glycoprotein I, grafted on beads as the reference (protein, UniProt P02749 20-345, looked up)
Beta-2-glycoprotein 1: GRTCPKPDDLPFSTVVPLKTFYEPGEEITYSCKPGYVSRGGMRKFICPLTGLWPINTLKCTPRVCPFAGILENGAVRYTTFEYPNTISFSCNTGFYLNGADSAKCTEEGKWSPELPVCAPIICPPPSIPTFATLRVYKPSAGNNSLYRDTAVFECLPQHAMFGNDTITCTTHGNWTKLPECREVKCPFPSRPDNGFVNYPAKPTLYYKDKATFGCHDGYSLDGPEEIECTKLGNWSAMPSCKASCKVPVKKATVVYQGERVKIQEKFKNGMLHGDKVSFFCKNKEKKCSYTEDAQCIDGTIEVPKCFKEHSSLAFWKTDASDVKPC
modifications: grafted on beads
As for B1, in [1], the ISAV copies is 55 800 copies. Also, the “IPN Copies” value in assay [2] is on record as 12 copies. The molecule further displayed an HCV/run copies in [3] of 113 copies. Moreover, the “% compared to β2GPI” value (with E. coli B6054; in the assay on E. coli ATCC 8739; in assay [4]; in the assay on SCN; in the assay on E. faecium; in the assay on S. maltophilia) was 100% each time.
